Legend:
[1] = Fetal data at scheduled necropsy (mg/kg/day dose groups); format: in vivo
Description: (§1) Tests were conducted with (S)-(+)-abscisic acid in accordance with standard guidelines and procedures as evidenced by EPA Subchronic Toxicity Test Guidelines: 870.3050—Repeated Dose 28-Day Oral Toxicity Study in Rodents (July 2000); 870.3100—90-Day Oral Toxicity in Rodents (August 1998); 870.3650—Combined Repeated Dose Toxicity Study with the Reproduction/Developmental Toxicity Screening Test (July 2000); and 870.3200—21/28-Day Dermal Toxicity (August 1998), as well as Organization for Economic Co-operation and Development (OECD) Guidelines for the Testing of Chemicals including: Test No. 407: Repeated Dose 28-day Oral Toxicity Study in Rodents; Test No. 408: Repeated Dose 90-Day Oral Toxicity Study in Rodents; Test No. 416: Two-Generation Reproduction Toxicity; and Test No. 410: Repeated Dose Dermal Toxicity: 21/28-day Study.

rats = assay: Two generation reproduction toxicity study, S-ABA continuously in the diet; format: in vivo; settings: for Mean Live Offspring Born: per litter; for SPLEEN WEIGHT, % DIFFERENCE: MALES
Description: as §1
This study was conducted to determine the potential adverse effects of the test substance on reproduction in a 2-generation study. This included determining the effects of the test substance on male and female reproductive processes, including gonadal function, estrous cyclicity, mating behavior, conception, gestation, parturition, lactation, weaning, and on growth and development of the offspring. A minimum of 1 litter was produced in each generation.
Three groups of male and female were offered ABA, continuously in the diet for at least 70 consecutive days prior to mating. Target tests substance concentrations were 10,000, 15,000, and 20,000 ppm for the F0 and F1 generations. A concurrent control group of 30 rats/sex was offered the basal diet continuously throughout the study. F0 animals were approximately 7 weeks of age at the initiation of test diet administration. The test diet was administered to the offspring selected to become the F1 generation following weaning. The F0 and F1 males continued to receive the test substance throughout mating and continuing through the day prior to euthanasia. The F0 and F1 females continued to receive the test substance throughout mating, gestation, and lactation, and through the day of euthanasia. For both generations (F1 and F2), 8 pups per litter (4 per sex, when possible) were selected to reduce the variability among the litters. Offspring (30/sex/group, if possible) from the pairing of the F0 animals were selected to constitute the F1 generation. F0 males and females were exposed for 127-130 consecutive days and F1 males and females were exposed for 178-186 consecutive days.
All animals were observed twice daily for appearance and behavior. Clinical observations, body weights, and food consumption were recorded at appropriate intervals for males throughout the study and for females prior to mating and during gestation and lactation. All F0 and F1 females were allowed to deliver and rear their pups until weaning on lactation day 21. Clinical observations, body weights, and sexes for F1 and F2 pups were recorded at appropriate intervals. Nonselected F1 pups and all surviving F2 pups were necropsied. Selected organs were weighed from 1 pup/sex/litter from F1 and F2 pups that wee necropsied. Each surviving F0 and F1 parental animal received a complete detailed gross necropsy following the completion of weaning of the F1 and F2 pups, respectively; selected organs were weighed. Spermatogenic endpoints were recorded for all F0 and F1 males, and ovarian primordial follicle counts were recorded for all F0 and F1 females in the control and high-exposure groups and all F0 and F1 females suspected of reduced fertility. Designated tissues from all F0 and F1 parental animals were examined microscopically.

[2] = 10,000 ppm in diet, rat offspring
[3] = 20,000 ppm in diet, rat offspring

Q: With `CC1=CC(=O)CC(C)(C)[C@@]1(O)/C=C/C(C)=C\C(=O)O` [S-ABA, (S)-(+)-abscisic acid] as the compound, how does the “fetus numbers at necropsy (in words)” value ([1]; conclusion from Table 5) read?
A: The value was “increase”.

Q: What about the “FETAL DATA AT SCHEDULED NECROPSY, SEX FEMALE, MEAN” value ([1]; group 2, 500 MG/KG/DAY) of the same compound?
A: The value was 7.2.

Q: And the “FETAL DATA AT SCHEDULED NECROPSY, SEX FEMALE, N (number of fetuses)” value ([1]; group 2, 500 MG/KG/DAY)?
A: The value was 181.

Q: And the “FETAL DATA AT SCHEDULED NECROPSY, SEX MALE, MEAN” value ([1]; group 2, 500 MG/KG/DAY)?
A: The value was 7.5.

Q: What about the “FETAL DATA AT SCHEDULED NECROPSY, SEX MALE, N (number of fetuses)” value ([1]; group 2, 500 MG/KG/DAY) of the same compound?
A: Its value is 187.

Q: What about the “FETAL DATA AT SCHEDULED NECROPSY, VIABLE FETUSES, MEAN” value ([1]; group 2, 500 MG/KG/DAY) of the same compound?
A: The value was 14.7.

Q: And the “FETAL DATA AT SCHEDULED NECROPSY, SEX FEMALE, MEAN” value ([1]; group 3, 750 MG/KG/DAY)?
A: The value was 6.6.

Q: What about the “FETAL DATA AT SCHEDULED NECROPSY, SEX FEMALE, N (number of fetuses)” value ([1]; group 3, 750 MG/KG/DAY) of the same compound?
A: The value was 166.

Q: And the “FETAL DATA AT SCHEDULED NECROPSY, SEX MALE, MEAN” value ([1]; group 3, 750 MG/KG/DAY)?
A: The value was 7.5.

Q: What about the “FETAL DATA AT SCHEDULED NECROPSY, SEX MALE, N (number of fetuses)” value ([1]; group 3, 750 MG/KG/DAY) of the same compound?
A: The value was 188.

Q: What about the “FETAL DATA AT SCHEDULED NECROPSY, VIABLE FETUSES, MEAN” value ([1]; group 3, 750 MG/KG/DAY) of the same compound?
A: The value was 14.2.

Q: What about the “FETAL DATA AT SCHEDULED NECROPSY, SEX FEMALE, MEAN” value ([1]; group 4, 1,000 MG/KG/DAY) of the same compound?
A: Its value is 8.3.

Q: What about the “FETAL DATA AT SCHEDULED NECROPSY, SEX FEMALE, N (number of fetuses)” value ([1]; group 4, 1,000 MG/KG/DAY) of the same compound?
A: Its value is 208.

Q: What about the “FETAL DATA AT SCHEDULED NECROPSY, SEX MALE, MEAN” value ([1]; group 4, 1,000 MG/KG/DAY) of the same compound?
A: The value was 6.8.

Q: And the “FETAL DATA AT SCHEDULED NECROPSY, SEX MALE, N (number of fetuses)” value ([1]; group 4, 1,000 MG/KG/DAY)?
A: Its value is 170.

Q: And the “FETAL DATA AT SCHEDULED NECROPSY, VIABLE FETUSES, MEAN” value ([1]; group 4, 1,000 MG/KG/DAY)?
A: The value was 15.1.

Q: What about the “Offspring FOUND DEAD” value (rats; 10,000 ppm in diet) of the same compound?
A: The value was 4.

Q: What about the “OFFSPRING WEIGHT, MEAN” value (rats; 10,000 ppm in diet, FEMALE, postnatal day 1) of the same compound?
A: Its value is 6.6 grams.

Q: And the “OFFSPRING WEIGHT, MEAN” value (rats; 10,000 ppm in diet, FEMALE, postnatal day 4)?
A: Its value is 9.1 grams.

Q: What about the “OFFSPRING WEIGHT, MEAN” value (rats; 10,000 ppm in diet, MALE, postnatal day 1) of the same compound?
A: Its value is 7.1 grams.

Q: What about the “OFFSPRING WEIGHT, MEAN” value (rats; 10,000 ppm in diet, MALE, postnatal day 4) of the same compound?
A: The value was 9.7 grams.

Q: And the “Mean Live Offspring Born” value (rats; 10,000 ppm in diet)?
A: The value was 12.3.

Q: What about the “POSTNATAL SURVIVAL, POSTNATAL DAY 0-1, MEAN” value (rats; [2]) of the same compound?
A: The value was 100.0 % PER LITTER.

Q: And the “POSTNATAL SURVIVAL, POSTNATAL DAY 7-14, MEAN” value (rats; [2])?
A: Its value is 100.0 % PER LITTER.

Q: What about the “POSTNATAL SURVIVAL, POSTNATAL DAY 14-21, MEAN” value (rats; [2]) of the same compound?
A: The value was 100.0 % PER LITTER.

Q: What about the “Offspring FOUND DEAD” value (rats; 15,000 ppm in diet) of the same compound?
A: Its value is 15.

Q: What about the “OFFSPRING WEIGHT, MEAN” value (rats; 15,000 ppm in diet, FEMALE, postnatal day 1) of the same compound?
A: Its value is 6.6 grams.

Q: What about the “OFFSPRING WEIGHT, MEAN” value (rats; 15,000 ppm in diet, FEMALE, postnatal day 4) of the same compound?
A: Its value is 8.8 grams.

Q: What about the “OFFSPRING WEIGHT, MEAN” value (rats; 15,000 ppm in diet, FEMALE, postnatal day 7) of the same compound?
A: The value was 14.0 grams.

Q: And the “OFFSPRING WEIGHT, MEAN” value (rats; 15,000 ppm in diet, MALE, postnatal day 1)?
A: Its value is 6.9 grams.

Q: What about the “OFFSPRING WEIGHT, MEAN” value (rats; 15,000 ppm in diet, MALE, postnatal day 4) of the same compound?
A: Its value is 9.3 grams.

Q: And the “Mean Live Offspring Born” value (rats; 15,000 ppm in diet)?
A: The value was 13.1.

Q: And the “POSTNATAL SURVIVAL, POSTNATAL DAY 14-21, MEAN” value (rats; 15,000 ppm in diet, rat offspring)?
A: Its value is 100.0 % PER LITTER.

Q: And the “Offspring FOUND DEAD” value (rats; 20,000 ppm in diet)?
A: The value was 11.

Q: What about the “OFFSPRING WEIGHT, MEAN” value (rats; 20,000 ppm in diet, FEMALE, postnatal day 1) of the same compound?
A: The value was 6.6 grams.

Q: And the “OFFSPRING WEIGHT, MEAN” value (rats; 20,000 ppm in diet, FEMALE, postnatal day 4)?
A: The value was 8.8 grams.

Q: What about the “OFFSPRING WEIGHT, MEAN” value (rats; 20,000 ppm in diet, MALE, postnatal day 1) of the same compound?
A: The value was 7.0 grams.

Q: And the “OFFSPRING WEIGHT, MEAN” value (rats; 20,000 ppm in diet, MALE, postnatal day 4)?
A: The value was 9.3 grams.

Q: And the “Mean Live Offspring Born” value (rats; 20,000 ppm in diet)?
A: Its value is 12.3.

Q: And the “POSTNATAL SURVIVAL, POSTNATAL DAY 4 (POST-SELECT)-21, MEAN” value (rats; [3])?
A: Its value is 98.0 % PER LITTER.

Q: What about the “POSTNATAL SURVIVAL, POSTNATAL DAY 14-21, MEAN” value (rats; [3]) of the same compound?
A: The value was 100.0 % PER LITTER.

Q: What about the “SPLEEN WEIGHT, % DIFFERENCE” value (rats; 10,000 PPM vs 0 PPM) of the same compound?
A: Its value is −2.0%.

Q: And the “SPLEEN WEIGHT, % DIFFERENCE” value (rats; 15,000 PPM vs 0 PPM)?
A: Its value is −3.0%.

Q: And the “SPLEEN WEIGHT, % DIFFERENCE” value (rats; 20,000 PPM vs 0 PPM)?
A: The value was −8.9%.

Q: And the “offspring mortality (in words)” value (rats; conclusion from Table 3)?
A: The value was “decreases”.

Q: What about the “number of live offspring per litter (in words)” value (rats; conclusion from Table 4) of the same compound?
A: Its value is “increases”.

Q: What about the “follicle size (in words)” value (rats; conclusion from Table 6) of the same compound?
A: The value was “increase”.

Q: What about the “postnatal offspring survival rates (in words)” value (rats; rats, conclusion from Table 1) of the same compound?
A: Its value is “increases”.

Q: And the “offspring weight gain (in words)” value (rats; rats, conclusion from Table 2)?
A: The value was “increases”.

Q: What about the “spleen weight (in words)” value (rats; rats, males and second generation pups) of the same compound?
A: The value was “spleen weight reduction”.

Source: patent US9591867B2, “Compositions of abscisic acid for animal health” (Valent BioSciences Corporation, priority 2010, dated 2017)
